Active and inactive are the calls of the source. The rule behind the calls is not given here.

Results on 27 compounds are retold here after ChEMBL document CHEMBL1152514, “Anti-tumor-initiating effects of phenolic compounds isolated from the bark of Picea jezoensis var. jezoensis” (2009).

Assay [1] is described as follows: Antitumor initiating activity in human Chang cells assessed as ratio of inhibition of cellular transformation in presence of NOR1 to compound and NOR1 at 350 nmol treated 1 min before NOR1 addition measured after 1 hr by light microscopy. It is filed as functional.
Assay [2] is described as follows: Anticancer activity against peroxynitrite/TPA-induced skin cancer in ICR mouse assessed as occurrence of papilloma at 0.187 mg/day, po administered for 2 weeks measured on week 11. In kind it is functional.
Another assay has as its system Mus musculus. The assay can be described thus: Anticancer activity against peroxynitrite/TPA-induced skin cancer in ICR mouse assessed as delay in tumor promotion at 0.187 mg/day, po administered for 2 weeks. It is filed as functional, organism-based.
Assay [3] in a line: Anticancer activity against peroxynitrite/TPA-induced skin cancer in ICR mouse assessed as average number of papilloma per mouse at 0.187 mg/day, po administered for 2 weeks measured on week 20. In kind it is functional.

In the case of `CC(C)c1cc2c(cc1O)[C@@]1(C)CCC[C@@](C)(C(=O)O)[C@@H]1CC2`, in assay [1], the Ratio was 2. The same measure, in the same setting: the value for `CC(=O)Oc1cc(OC(C)=O)c2c(c1)[C@@H]1C3C(=CC(=O)C[C@H]1c1ccc(OC(C)=O)c(OC(C)=O)c1)O[C@H](c1ccc(OC(C)=O)c(OC(C)=O)c1)[C@@H](O)[C@H]23` (stereo not given in full) was 1.8; that for `CC(=O)Oc1cc(OC(C)=O)cc([C@H]2c3c(/C=C/c4ccc(OC(C)=O)c(OC(C)=O)c4)cc(OC(C)=O)cc3O[C@@H]2c2ccc(OC(C)=O)c(OC(C)=O)c2)c1` was 1.9. Still for that read-out and setting: as for `CC(=O)Oc1cc(/C=C/c2ccc3c(c2)O[C@H](c2ccc(OC(C)=O)c(OC(C)=O)c2)[C@@H](c2cc(OC(C)=O)cc(OC(C)=O)c2)O3)cc(OC(C)=O)c1`, the figure is 1.8; as for `CC(=O)Oc1cc(OC(C)=O)cc([C@@H]2c3c(cc(OC(C)=O)c4c3O[C@H](c3ccc(OC(C)=O)c(OC(C)=O)c3)[C@@H](O)C4)O[C@H]2c2ccc(OC(C)=O)c(OC(C)=O)c2)c1`, 1.9.

Take `CC(=O)Oc1cc(OC(C)=O)cc([C@H]2c3c(cc(OC(C)=O)c4c3O[C@H](c3ccc(OC(C)=O)c(OC(C)=O)c3)[C@@H](O)C4)O[C@@H]2c2ccc(OC(C)=O)c(OC(C)=O)c2)c1`: the Ratio in assay [1] came out at 1.9. Regarding `CC(=O)Oc1ccc(/C=C/c2cc(OC(C)=O)cc3c2[C@H](c2cc(OC(C)=O)cc(OC(C)=O)c2)[C@@H](c2ccc(OC(C)=O)c(OC(C)=O)c2)O3)cc1`, the Ratio in assay [1] is reported as 1.8. As for `COc1cc([C@H]2Oc3cc(C(=O)O)ccc3O[C@@H]2CO)ccc1O` [3-O-METHYL ISOAMERICANOIC ACID A], the Ratio in assay [1] turned out to be 1.7. The same measure, in the same setting: as for `O=C1c2c(O)cc(O)cc2O[C@H](c2ccc(O)c(O)c2)[C@H]1O` [(+)-TAXIFOLIN], the figure is 2.5.

On to `Oc1cc(O)cc(/C=C/c2ccc3c(c2)O[C@H](c2ccc(O)c(O)c2)[C@@H](c2cc(O)cc(O)c2)O3)c1` [CASSIGAROL E], for which the Ratio in assay [1] is 2.1. Take `O=C(O)/C=C/c1ccc(O)cc1` [COUMARIC ACID]: the Ratio in assay [1] is listed as 1.9.

Take `COc1cc(/C=C/C(=O)CC(=O)/C=C/c2ccc(O)c(OC)c2)ccc1O` [CURCUMIN]: the Ratio in assay [1] is reported as 2.1. Consider `COc1cc([C@@H]2Oc3c(OC)cc(CCCO)cc3[C@H]2CO)ccc1O` [DIHYDRODEHYDRODICONIFERYL ALCOHOL], for which the Ratio in assay [1] is given as 1.8.

In the case of `COc1cc([C@H]2c3cc(O)c(OC)cc3C[C@@H](CO)[C@@H]2CO)ccc1O` [ISOLARICIRESINOL], the Ratio in assay [1] was found to be 2.

Turning to `Oc1cc(O)cc([C@@H]2c3c(cc(O)c4c3O[C@H](c3ccc(O)c(O)c3)[C@@H](O)C4)O[C@H]2c2ccc(O)c(O)c2)c1` [JEZONOCINOL A], the Ratio in assay [1] was found to be 2.7. Regarding `Oc1cc(O)cc([C@H]2c3c(cc(O)c4c3O[C@H](c3ccc(O)c(O)c3)[C@@H](O)C4)O[C@@H]2c2ccc(O)c(O)c2)c1` [JEZONOCINOL B], the Ratio in assay [1] is 2.7. The Activity amounted to 27% in assay [2] and 3.1 in assay [3]. The outcome with Mus musculus was Active.

Turning to `O=C1C=C2O[C@H](c3ccc(O)c(O)c3)[C@@H](O)[C@@H]3c4c(O)cc(O)cc4[C@H](C23)[C@H](c2ccc(O)c(O)c2)C1` (stereo not given in full) [JEZONOCINOL C], the Ratio in assay [1] is on record as 2.3. Turning to `O=C1C=C(/C=C/c2ccc(O)c(O)c2)[C@@H]2C(=O)[C@H]1[C@H](c1ccc(O)c(O)c1)[C@H]2c1cc(O)cc(O)c1` [JEZONODIONE], the Ratio in assay [1] is 2.2.

Take `Oc1cc2c3c(c4cc(O)cc5c4c(c3c1)[C@@H](c1ccc(O)c(O)c1)O5)[C@@H](c1ccc(O)c(O)c1)O2` [JEZONOFOL]: the Ratio in assay [1] stood at 2.3. For the compound `COc1cc(/C=C2/C(=O)O[C@H](c3ccc(O)c(O)c3)[C@H]2c2cc(O)cc(O)c2)ccc1O` [JEZONOLIDE], the Ratio in assay [1] came out at 2.1. Same read-out and setting: the value for `COc1cc(C[C@H]2CO[C@H](c3ccc(O)c(OC)c3)[C@H]2CO)ccc1O` [LARICIRESINOL] was 2; that for `Oc1cc(O)cc(/C=C/c2ccc(O)c(O)c2)c1` [PICEATANNOL] was 2.

As to `O=Cc1ccc(O)c(O)c1` [PROTOCATECHUALDEHYDE], the Ratio in assay [1] stood at 1.8. Same read-out and setting: as for `O=C(O)c1ccc(O)c(O)c1` [PROTOCATECHUIC ACID], the figure is 1.8.

For the compound `O=c1c(O)c(-c2ccc(O)c(O)c2)oc2cc(O)cc(O)c12` [QUERCETIN], the Ratio in assay [1] is recorded as 2.9. For `Oc1ccc(/C=C/c2cc(O)cc3c2[C@H](c2cc(O)cc(O)c2)[C@@H](c2ccc(O)c(O)c2)O3)cc1` [SCIRPUSIN A], in assay [1], the Ratio came to 2.

As to `Oc1cc(O)cc([C@H]2c3c(/C=C/c4ccc(O)c(O)c4)cc(O)cc3O[C@@H]2c2ccc(O)c(O)c2)c1` [TRANS-SCIRPUSIN B], the Ratio in assay [1] is recorded as 2.2.
